Structures are written as SMILES.

This data set can be described thus: gradient 5% acetonitrile 3 min, to 50% in 2 min, to 85% in 15 min, held 3 min, 100 µL/min. The note with it: column: Zorbax Extend-C18 2.1 x 50 mm; eluents: water / acetonitrile, 0.1% formic acid. The method, boiled down: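 Retention time was recorded from adduct peaks, which were picked computationally and each inspected manually. Pure standards ran in mixtures of ~100 molecules on HPLC coupled to a quadrupole time-of-flight mass spectrometer, in positive and negative ionization mode, through a Zorbax Extend-C18 column (2.1 × 50 mm, 1.8 μm) at 100 μL/min. Eluents were water and acetonitrile, each with 0.1% formic acid.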
In turn, `COCCNC(=O)C1CCN(c2nc3ccc(-c4ccccc4)nc3s2)CC1` returned an RP-LC retention time of 832 s.
`CC(C)c1ccc(NC(=O)Cn2ncc3c(c2=O)N(C2CC2)C(=O)CS3)cc1` showed an RP-LC retention time of 784 s.
Next, `O=C(C1CCN(c2cncnc2N2CCCC2)CC1)N1CCN(c2ccc(F)cc2)CC1`: 670 s.
Next, `COC(=O)c1ccc2c(=O)n(-c3ccc(OC)cc3)c(N3CCN(c4ccccn4)CC3)nc2c1`: 1290 s.
Next, `COc1ccc(Cl)cc1C(=O)NCCCOc1cccc2cccnc12`: 611 s.
In the case of `Cc1ncc2c(n1)CCCN(CC(=O)N1CCCC1)C2=O`, the RP-LC retention time was determined as 579 s.
Next, `CCCS(=O)(=O)c1nc2ccc(NS(=O)(=O)c3ccc4c(c3)OCCO4)cc2s1`: 888 s; `CN1C(=O)C(c2c(-c3ccc4ccccc4c3)[nH]c3[nH]c(=O)[nH]c(=O)c23)c2ccccc21` (stereo not drawn): 721 s.
Turning to `COc1ccc(N2CCN(c3cc(SCC(=O)Nc4cccc(C#N)c4)ncn3)CC2)cc1`, the RP-LC retention time came to 895 s.
`CCOc1ccc(NCC(O)Cn2c3ccccc3n3c(=O)cc(C)c(C#N)c23)cc1` (stereo not drawn) had an RP-LC retention time of 668 s.
Next, `CCOc1ccc(CNC(=O)C2=Cc3cc(OC)ccc3OC2)cc1OC`: 861 s.
For the compound `Cc1cc(-c2nnc(-c3ccccc3)o2)c(C)n1CC(=O)NC(C)c1ccccc1` (stereo not drawn), the RP-LC retention time was determined as 921 s.
Regarding `O=C(Cn1cccc(-c2nc(-c3ccc(F)cc3)no2)c1=O)Nc1cc(F)ccc1F`, the RP-LC retention time worked out at 915 s.
`O=C([C@@H]1C[C@H](F)CN1S(=O)(=O)c1ccc(F)c(F)c1)N1CCCCC1` yielded an RP-LC retention time of 780 s.
Turning to `O=C(CC1CCCN(c2cn[nH]c(=O)c2)C1)Nc1ccc2c(c1)OCCO2` (stereo not drawn), the RP-LC retention time is 639 s.
Next, `Cc1ccccc1-c1noc(CSc2nc3cc4c(cc3c(=O)n2CC2CCCO2)OCO4)n1` (stereo not drawn): 1170 s.
Turning to `C[C@@H](NC(=O)c1ccccc1F)C(=O)NCc1cscn1`, the RP-LC retention time was 620 s.
Next, `O=C(Cn1cnc2c(sc3nc(-c4ccccc4)ccc32)c1=O)Nc1ccc(F)c(F)c1`: 1040 s; `COc1ccc(NC(=O)Cn2nc(N3CCOCC3)c3ccccc3c2=O)c(OC)c1`: 766 s.
In the case of `FC1(F)CN[C@H](c2nc(-c3cccnc3)no2)C1`, the RP-LC retention time was found to be 621 s.
On to `OC(COCCOc1c(F)cc(Br)cc1F)CSc1ccccn1` (stereo not drawn), for which the RP-LC retention time was 934 s.
Compound `Cc1ccc(N2CC(C(=O)N3CCCC3c3nc(-c4cccc(C)c4)no3)CC2=O)cc1` (stereo not drawn) gave an RP-LC retention time of 984 s.
Compound `O=C1NC(C(=O)NC2CC2)Cn2cccc21` (stereo not drawn) returned an RP-LC retention time of 569 s.
On to `CN1C(=O)C2CCCCN2c2ccc(C(=O)N3CCN(c4cccc(Cl)c4)CC3)cc21` (stereo not drawn), for which the RP-LC retention time stood at 1060 s.
Next, `CCCNC(=O)c1cc(-c2ccncc2)cn1Cc1ccc(C)cc1`: 696 s.
Next, `CCn1ccc2sc(C)c(C(=O)NCc3cccc(OC)c3)c2c1=O`: 785 s; `Cc1ccn2c(NC(=O)COc3ccccc3)c(-c3ccc(F)cc3)nc2c1`: 689 s.
`CC(C)(C)NS(=O)(=O)CCNC(=O)c1ccccc1` displayed an RP-LC retention time of 665 s.
Next, `Cc1ccc(C2C(S(=O)(=O)c3ccc(C)cc3)=C(O)C(=O)N2Cc2ccco2)cc1` (stereo not drawn): 976 s; `COc1ccc2c(c1)CCc1c-2n[nH]c1C(=O)O`: 674 s; `CN1[C@@H]2CC[C@H]1CC(OC(=O)C1C=Nc3ccccc31)C2` (stereo partly drawn): 656 s.
Next, `CNC(=O)c1cccc(Nc2c(-c3ccc(N(C)C)cc3)nc3cnccn23)c1`: 610 s.
Next, `COc1ccc(-c2c(C)noc2NC(C)=O)cc1S(=O)(=O)N1CCC2(CC1)OCCO2`: 680 s; `Cc1ccc2[nH]cc(CCNC(=O)CC3CCN(C(=O)NC4CCCCC4)CC3)c2c1`: 808 s; `COC(=O)c1c(NCc2cccc(OC)c2)c2cccc(Cl)c2[nH]c1=O`: 803 s.
Turning to `COc1cccc(-c2nnc(SCC(=O)NCc3cccnc3)n2-c2ccccc2)c1`, the RP-LC retention time is 573 s.
Next, `COc1ccc(-c2nnc(-c3ccc(OC)c(S(=O)(=O)N(C)C)c3)o2)cc1OC`: 807 s.
Next, `CN1CC(c2nc(C3CC3)no2)C2(CCN(C(=O)c3ccc4c(c3)OCO4)CC2)C1` (stereo not drawn): 609 s; `COCc1nncn1C1CCN(S(=O)(=O)c2cc(F)ccc2OC)CC1`: 679 s.
Next, `CC(C)n1c(-c2cccc(C(=O)NCc3cccs3)c2)nc2cccnc21`: 787 s; `CCCN(CCC)CCc1ccc(O)c(O)c1`: 602 s; `O=C(c1ccc(N2CCOCC2)nn1)N1CCN(c2ncccn2)CC1`: 586 s.
The compound `COc1ccc(CNC(=O)C2CCCN(S(=O)(=O)c3cc(-c4noc(C)n4)cs3)C2)cc1` (stereo not drawn) had an RP-LC retention time of 1040 s.
Next, `O=C(CCc1cccc2[nH]ccc12)NCc1ccc(N2CCOCC2)cc1`: 714 s.
Compound `C=C(C)[C@H]1O[C@H]2CC[C@@]3(C)[C@@](O)(CC[C@H]4[C@@H]5OC(C)(C)[C@H]6C[C@@H]7C(=C)Cc8c(Cl)cc9[nH]c(c5c9c8[C@@]76O)[C@@]43C)[C@]23O[C@@H]3[C@H]1O` returned an RP-LC retention time of 1180 s.
Next, `COc1ccccc1-c1coc2cc(OC(=O)c3cccs3)ccc2c1=O`: 992 s; `CCN1C(=O)C(C)(C(=O)Nc2ccccc2)Oc2cccnc21` (stereo not drawn): 859 s; `COc1ccc(CCNC(=O)c2ccc3[nH]c4c(c3c2)CN(C(C)=O)CC4)cc1OC`: 650 s.
Next, `CC1CCN(c2ncc3c(n2)CCC(C(=O)NCCC2=CCCCC2)C3)CC1` (stereo not drawn): 974 s; `COc1ccc(C2(C(=O)N3CCN(C(=O)c4cc(-c5ccncc5)n[nH]4)CC3)CC2)cc1`: 610 s; `Cc1ccc(Cl)cc1NC(=O)CC1COc2ccccc2NC1=O` (stereo not drawn): 767 s.
`Cc1ccc(S(=O)(=O)c2cnc(N3CCN(Cc4ccc5c(c4)OCO5)CC3)nc2N)cc1` gave an RP-LC retention time of 679 s.
Take `CCOC(=O)Cc1c(C)nc2c(-c3ccccc3)c(C)nn2c1C`: the RP-LC retention time was determined as 1080 s.
Next, `COc1ccc(OC)c(S(=O)(=O)N2CCCC(C)(C(=O)NCc3ccccc3)C2)c1` (stereo not drawn): 903 s; `COc1ccc(NC(=O)c2cn(-c3cc(N4CCCCC4C)ncn3)cn2)cc1OC` (stereo not drawn): 939 s; `CCS(=O)(=O)Nc1ccc(-c2noc(COc3ccc(OC)cc3)n2)cc1`: 919 s.
Compound `Cn1cc2c(n1)c(=O)n(Cc1ccccc1)c(=O)n2CC(=O)NCc1ccccc1` registered an RP-LC retention time of 769 s.
Next, `O=C(Nc1ccc2c(c1)CN(S(=O)(=O)c1ccccc1)CC2)c1cc(-c2ccco2)on1`: 1010 s; `c1ccc(CNc2c(-c3ccc4c(c3)OCCO4)nc3ncccn23)cc1`: 710 s; `Cc1ccc2c(c1)c(=O)c1c(n2C)CCN(CC(=O)Nc2ccccc2Cl)C1`: 640 s.
Next, `COc1ccccc1NC(=O)N1CCC2(CC1)NC(=O)c1ccc(Cl)cc1N2`: 775 s.
Next, `O=C(NCc1ccccc1F)C1CCN(c2cnc(N3CCCC3)nc2)CC1`: 654 s; `CC1=C(c2ccc(F)cc2)S(=O)(=O)N=C1N1CCCN(C(=O)C2CCCCC2)CC1`: 883 s.
Regarding `Cn1ccc2cc(S(=O)(=O)N3CCC(C(=O)N4CCN(c5ncccn5)CC4)CC3)ccc21`, the RP-LC retention time stood at 821 s.
Next, `COc1cccc(CNC(=O)C2CCN(S(=O)(=O)c3ccc4c(c3)NC(=O)C(C)O4)CC2)c1` (stereo not drawn): 757 s; `CC1=C(c2ccc(C)cc2)S(=O)(=O)N=C1N1CCCN(C(=O)c2ccccc2C)CC1`: 898 s.
`Cc1nn(CC(=O)NC2CCCCCC2)c(=O)c2c(C)n(-c3ccccc3)nc12` returned an RP-LC retention time of 807 s.
Next, `CC(C)n1c(C2CCN(C(=O)Cc3cccc(Cl)c3)C2)nc2ccncc21` (stereo not drawn): 567 s; `O=C(NCc1ccccc1)c1ccc2c(c1)CCN2C(=O)C1CC1`: 794 s.
`CC(C)(C)C1=NN=C2c3ccccc3C(=O)C21` (stereo not drawn) yielded an RP-LC retention time of 852 s.
`CCSc1nnc(-c2nn(C)c3c2CN(S(=O)(=O)c2ccc(C)c(F)c2)CC3)n1CC`: the RP-LC retention time stood at 1000 s.
As for `CCCN1C(=O)COc2ccc(-c3noc(CNC(=O)Cc4ccccc4)n3)cc21`, the RP-LC retention time worked out at 849 s.
Next, `O=C(NC1CC1)[C@@H]1C[C@H](Oc2ccccc2)CN1C(=O)c1ccc2ncccc2c1`: 649 s; `O=C(c1cccn1Cc1noc(-c2ccc(Cl)cc2)n1)N1CCCC1`: 1020 s; `Cc1cc(C)n(C(=O)COc2ccc(Cl)cc2C)n1`: 1160 s.
Next, `O=C1c2ccccc2C(=O)C1c1ccccn1`: 749 s.
Next, `CCC(=O)c1cn(CC(=O)NCc2ccc3c(c2)OCCCO3)c2ccccc12`: 794 s.
In turn, `COC[C@@H]1CN(C(=O)c2cc(C)oc2C)C[C@H]1c1nc(C2CC2)no1` gave an RP-LC retention time of 815 s.

The values above are taken from the METLIN SMRT retention time set (Domingo-Almenara et al. 2019).
